What was measured:
[1] = test system: ABUTH (Abutilon theophrasti); assay: Postemergence herbicidal evaluation; assay type: in vivo, Medic.
Procedure, shortened: (§1)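 Seedlings grown for about two weeks were sprayed postemergence and then kept under standard greenhouse care. Injury was rated visually 4–5 weeks after treatment on a 0–9 scale against untreated controls, and ratings from repeat tests were averaged.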

[2] = test system: AMBEL (Ambrosia artemisifolia); assay: Postemergence herbicidal evaluation; assay type: in vivo, L.
Procedure, shortened: as §1

[3] = test system: CASOB (Cassia obtusifolia); assay: Postemergence herbicidal evaluation; assay type: in vivo, L.
Procedure, shortened: as §1

[4] = test system: CHEAL (Chenopodium album); assay: Postemergence herbicidal evaluation; assay type: in vivo, L.
Procedure, shortened: as §1

[5] = test system: GALAP (Galium aparine); assay: Postemergence herbicidal evaluation; assay type: in vivo
Procedure, shortened: as §1

[6] = test system: IPOHE (Ipomoea hederacea); assay: Postemergence herbicidal evaluation; assay type: in vivo, (L.) Jacq.
Procedure, shortened: as §1

[7] = test system: SETVI (Setaria viridis); assay: Postemergence herbicidal evaluation; assay type: in vivo, (L.) Beau
Procedure, shortened: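 ~2-wk seedlings; spray 0.0040–1.000 kg/ha in 50/50 acetone/water + 0.5% TWEEN 20, 40 psi nozzle. Greenhouse hold; visual 0–9 rating vs control at 4–5 wk; multiple tests averaged.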

[8] = test system: ORYSAT (Rice, Tebonnet); assay: Postemergence herbicidal evaluation; assay type: in vivo, Oryza sativa, (L.) Tebonnet
Procedure, shortened: as §1

[9] = test system: TRZAWR (Wheat, Winter, cv Riband); assay: Postemergence herbicidal evaluation; assay type: in vivo, Triticum aestivum
Procedure, shortened: as §1

[10] = test system: AMBEL (Ambrosia artemisifolia); assay: Preemergence herbicidal evaluation; assay type: in vivo, L.; conditions: preemergence, rated 4-5 weeks after treatment
Procedure, shortened: (§2)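 Test compound is applied in aqueous acetone to cups just after seeding. Cups are watered and maintained on greenhouse benches. Each cup is scored 0–9 by eye relative to a control after four to five weeks.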

[11] = test system: CASOB (Cassia obtusifolia); assay: Preemergence herbicidal evaluation; assay type: in vivo, L.; conditions: preemergence, rated 4-5 weeks after treatment
Procedure, shortened: as §2

[12] = test system: CHEAL (Chenopodium album); assay: Preemergence herbicidal evaluation; assay type: in vivo, L.; conditions: preemergence, rated 4-5 weeks after treatment
Procedure, shortened: as §2

[13] = test system: GALAP (Galium aparine); assay: Preemergence herbicidal evaluation; assay type: in vivo; conditions: preemergence, rated 4-5 weeks after treatment
Procedure, shortened: as §2

[14] = test system: ECHCG (Echinochloa crus-galli); assay: Preemergence herbicidal evaluation; assay type: in vivo, (L.) Beau; conditions: preemergence, rated 4-5 weeks after treatment
Procedure, shortened: as §2

[15] = test system: SETVI (Setaria viridis); assay: Preemergence herbicidal evaluation; assay type: in vivo, (L.) Beau; conditions: preemergence, rated 4-5 weeks after treatment
Procedure, shortened: as §2

[16] = test system: ORYSAT (Rice, Tebonnet); assay: Preemergence herbicidal evaluation; assay type: in vivo, Oryza sativa, (L.) Tebonnet; conditions: preemergence, rated 4-5 weeks after treatment
[17] = test system: CYPIR (Cyperus iria); assay: Flooded paddy, preemergence weed control; assay type: in vivo; conditions: rated 3-4 weeks after treatment, 0-9 rating scale
Procedure, shortened: (§3)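 In this preemergence paddy assay, weed seeds or organs are sown at up to 0.5 cm in silt loam and covered by 1.5–3 cm of water for the full test period. After treatment the pots are kept in a greenhouse, and herbicidal effect is rated 0-9 visually against a control.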

[18] = test system: CYPSE (Cyperus serotinus); assay: Flooded paddy, preemergence weed control; assay type: in vivo, Rottb.; conditions: rated 3-4 weeks after treatment, 0-9 rating scale
Procedure, shortened: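 Herbicidal effect was scored visually on a 0–9 scale against an untreated control 3–4 weeks after treatment. Compounds were applied preemergence as 50/50 v/v aqueous/acetone mixtures into flood water (1.5–3 cm deep over silt loam), at roughly 0.0080 to 0.1250 kg/ha active ingredient.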

[19] = test system: MOOVA (Monochoria vaginalis); assay: Flooded paddy, preemergence weed control; assay type: in vivo, Presl.; conditions: rated 3-4 weeks after treatment, 0-9 rating scale
Procedure, shortened: as §3

[20] = test system: SAGPY (Sagittaria pygmaea); assay: Flooded paddy, preemergence weed control; assay type: in vivo, L.; conditions: rated 3-4 weeks after treatment, 0-9 rating scale
Procedure, shortened: as §3

## CCc1cc(-c2nsc3ccc(-n4c(=O)cc(C(F)(F)F)n(C)c4=O)cc23)c(CC)s1 [Compound 8, 3-[3-(2,5-diethyl-3-thienyl)-1,2-benzisothiazol-5-yl]-1-methyl-6-(trifluoromethyl)uracil]
[1]; rate 0.0320 kg/ha
  Postemergence herbicidal rating, ABUTH: 9.0
[1]; rate 0.0620 kg/ha
  Postemergence herbicidal rating, ABUTH: 9.0
[2]; rate 0.0320 kg/ha
  Postemergence herbicidal rating, AMBEL: 3.0
[2]; rate 0.0620 kg/ha
  Postemergence herbicidal rating, AMBEL: 6.0
[3]; rate 0.0320 kg/ha
  Postemergence herbicidal rating, CASOB: 1.0
[3]; rate 0.0620 kg/ha
  Postemergence herbicidal rating, CASOB: 1.0
[4]; rate 0.0320 kg/ha
  Postemergence herbicidal rating, CHEAL: 4.0
[4]; rate 0.0620 kg/ha
  Postemergence herbicidal rating, CHEAL: 7.0
[5]; rate 0.0320 kg/ha
  Postemergence herbicidal rating, GALAP: 3.0
[5]; rate 0.0620 kg/ha
  Postemergence herbicidal rating, GALAP: 6.0
[6]; rate 0.0320 kg/ha
  Postemergence herbicidal rating, IPOHE: 9.0
[6]; rate 0.0620 kg/ha
  Postemergence herbicidal rating, IPOHE: 7.0
[7]; rate 0.0320 kg/ha
  Postemergence herbicidal rating, SETVI: 3.0
[7]; rate 0.0620 kg/ha
  Postemergence herbicidal rating, SETVI: 4.0
[8]; rate 0.0320 kg/ha
  Postemergence herbicidal rating, ORYSAT: 3.0
[8]; rate 0.0620 kg/ha
  Postemergence herbicidal rating, ORYSAT: 3.0
[9]; rate 0.0320 kg/ha
  Postemergence herbicidal rating, TRZAWR: 4.0
[9]; rate 0.0620 kg/ha
  Postemergence herbicidal rating, TRZAWR: 5.0
[10]; Rate 0.0620 kg/ha
  AMBEL preemergence herbicidal rating: 0.0
[10]; Rate 0.1250 kg/ha
  AMBEL preemergence herbicidal rating: 2.0
[10]; Rate 0.2500 kg/ha
  AMBEL preemergence herbicidal rating: 9.0
[11]; Rate 0.0620 kg/ha
  CASOB preemergence herbicidal rating: 0.0
[11]; Rate 0.1250 kg/ha
  CASOB preemergence herbicidal rating: 0.0
[11]; Rate 0.2500 kg/ha
  CASOB preemergence herbicidal rating: 0.0
[12]; Rate 0.0620 kg/ha
  CHEAL preemergence herbicidal rating: 9.0
[12]; Rate 0.1250 kg/ha
  CHEAL preemergence herbicidal rating: 9.0
[12]; Rate 0.2500 kg/ha
  CHEAL preemergence herbicidal rating: 9.0
[13]; Rate 0.0620 kg/ha
  GALAP preemergence herbicidal rating: 0.0
[13]; Rate 0.1250 kg/ha
  GALAP preemergence herbicidal rating: 0.0
[13]; Rate 0.2500 kg/ha
  GALAP preemergence herbicidal rating: 9.0
[14]; Rate 0.0620 kg/ha
  ECHCG preemergence herbicidal rating: 0.0
[14]; Rate 0.1250 kg/ha
  ECHCG preemergence herbicidal rating: 0.0
[14]; Rate 0.2500 kg/ha
  ECHCG preemergence herbicidal rating: 9.0
[15]; Rate 0.0620 kg/ha
  SETVI preemergence herbicidal rating: 9.0
[15]; Rate 0.1250 kg/ha
  SETVI preemergence herbicidal rating: 9.0
[15]; Rate 0.2500 kg/ha
  SETVI preemergence herbicidal rating: 9.0
[16]; Rate 0.0620 kg/ha
  ORYSAT preemergence herbicidal rating: 0.0
[16]; Rate 0.1250 kg/ha
  ORYSAT preemergence herbicidal rating: 0.0
[16]; Rate 0.2500 kg/ha
  ORYSAT preemergence herbicidal rating: 0.0
[17]; rate 0.0080 kg/ha
  herbicidal rating, CYPIR: 8.5
[17]; rate 0.0320 kg/ha
  herbicidal rating, CYPIR: 9.0
[17]; rate 0.1250 kg/ha
  herbicidal rating, CYPIR: 9.0
[18]; rate 0.1250 kg/ha
  herbicidal rating, CYPSE: 4.5
[19]; rate 0.0080 kg/ha
  herbicidal rating, MOOVA: 9.0
[19]; rate 0.0320 kg/ha
  herbicidal rating, MOOVA: 9.0
[19]; rate 0.1250 kg/ha
  herbicidal rating, MOOVA: 9.0
[20]; rate 0.0080 kg/ha
  herbicidal rating, SAGPY: 0.0
[20]; rate 0.0320 kg/ha
  herbicidal rating, SAGPY: 0.0
[20]; rate 0.1250 kg/ha
  herbicidal rating, SAGPY: 0.0

## COc1ccsc1-c1nsc2ccc(-n3c(=O)cc(C(F)(F)F)n(C)c3=O)cc12 [Compound 10, 3-[3-(3-methoxy-2-thienyl)-1,2-benzisothiazol-5-yl]-1-methyl-6-(trifluoromethyl)uracil]
[1]; rate 0.0320 kg/ha
  Postemergence herbicidal rating, ABUTH: 8.0
[1]; rate 0.0620 kg/ha
  Postemergence herbicidal rating, ABUTH: 8.0
[1]; rate 0.1250 kg/ha
  Postemergence herbicidal rating, ABUTH: 9.0
[2]; rate 0.0320 kg/ha
  Postemergence herbicidal rating, AMBEL: 2.0
[2]; rate 0.0620 kg/ha
  Postemergence herbicidal rating, AMBEL: 3.0
[2]; rate 0.1250 kg/ha
  Postemergence herbicidal rating, AMBEL: 9.0
[3]; rate 0.0320 kg/ha
  Postemergence herbicidal rating, CASOB: 0.0
[3]; rate 0.0620 kg/ha
  Postemergence herbicidal rating, CASOB: 0.0
[3]; rate 0.1250 kg/ha
  Postemergence herbicidal rating, CASOB: 1.0
[4]; rate 0.0320 kg/ha
  Postemergence herbicidal rating, CHEAL: 1.0
[4]; rate 0.0620 kg/ha
  Postemergence herbicidal rating, CHEAL: 1.0
[4]; rate 0.1250 kg/ha
  Postemergence herbicidal rating, CHEAL: 4.0
[5]; rate 0.0320 kg/ha
  Postemergence herbicidal rating, GALAP: 1.0
[5]; rate 0.0620 kg/ha
  Postemergence herbicidal rating, GALAP: 1.0
[5]; rate 0.1250 kg/ha
  Postemergence herbicidal rating, GALAP: 9.0
[6]; rate 0.0320 kg/ha
  Postemergence herbicidal rating, IPOHE: 2.0
[6]; rate 0.0620 kg/ha
  Postemergence herbicidal rating, IPOHE: 2.0
[6]; rate 0.1250 kg/ha
  Postemergence herbicidal rating, IPOHE: 7.0
[7]; rate 0.0320 kg/ha
  Postemergence herbicidal rating, SETVI: 0.0
[7]; rate 0.0620 kg/ha
  Postemergence herbicidal rating, SETVI: 0.5
[7]; rate 0.1250 kg/ha
  Postemergence herbicidal rating, SETVI: 0.0
[8]; rate 0.0320 kg/ha
  Postemergence herbicidal rating, ORYSAT: 1.3
[8]; rate 0.0620 kg/ha
  Postemergence herbicidal rating, ORYSAT: 1.8
[8]; rate 0.1250 kg/ha
  Postemergence herbicidal rating, ORYSAT: 3.0
[9]; rate 0.0320 kg/ha
  Postemergence herbicidal rating, TRZAWR: 2.5
[9]; rate 0.0620 kg/ha
  Postemergence herbicidal rating, TRZAWR: 2.8
[9]; rate 0.1250 kg/ha
  Postemergence herbicidal rating, TRZAWR: 4.0
[10]; Rate 0.0620 kg/ha
  AMBEL preemergence herbicidal rating: 4.0
[10]; Rate 0.1250 kg/ha
  AMBEL preemergence herbicidal rating: 6.0
[10]; Rate 0.2500 kg/ha
  AMBEL preemergence herbicidal rating: 7.0
[11]; Rate 0.0620 kg/ha
  CASOB preemergence herbicidal rating: 0.5
[11]; Rate 0.1250 kg/ha
  CASOB preemergence herbicidal rating: 1.0
[11]; Rate 0.2500 kg/ha
  CASOB preemergence herbicidal rating: 1.0
[12]; Rate 0.0620 kg/ha
  CHEAL preemergence herbicidal rating: 8.0
[12]; Rate 0.1250 kg/ha
  CHEAL preemergence herbicidal rating: 9.0
[12]; Rate 0.2500 kg/ha
  CHEAL preemergence herbicidal rating: 9.0
[13]; Rate 0.0620 kg/ha
  GALAP preemergence herbicidal rating: 5.0
[13]; Rate 0.1250 kg/ha
  GALAP preemergence herbicidal rating: 8.5
[13]; Rate 0.2500 kg/ha
  GALAP preemergence herbicidal rating: 8.0
[14]; Rate 0.0620 kg/ha
  ECHCG preemergence herbicidal rating: 0.5
[14]; Rate 0.1250 kg/ha
  ECHCG preemergence herbicidal rating: 5.0
[14]; Rate 0.2500 kg/ha
  ECHCG preemergence herbicidal rating: 9.0
[15]; Rate 0.0620 kg/ha
  SETVI preemergence herbicidal rating: 7.5
[15]; Rate 0.1250 kg/ha
  SETVI preemergence herbicidal rating: 9.0
[15]; Rate 0.2500 kg/ha
  SETVI preemergence herbicidal rating: 9.0
[16]; Rate 0.0620 kg/ha
  ORYSAT preemergence herbicidal rating: 1.0
[16]; Rate 0.1250 kg/ha
  ORYSAT preemergence herbicidal rating: 3.0
[16]; Rate 0.2500 kg/ha
  ORYSAT preemergence herbicidal rating: 7.0
[17]; rate 0.0320 kg/ha
  herbicidal rating, CYPIR: 4.0
[17]; rate 0.1250 kg/ha
  herbicidal rating, CYPIR: 9.0
[18]; rate 0.0320 kg/ha
  herbicidal rating, CYPSE: 0.0
[18]; rate 0.1250 kg/ha
  herbicidal rating, CYPSE: 0.0
[19]; rate 0.0320 kg/ha
  herbicidal rating, MOOVA: 9.0
[19]; rate 0.1250 kg/ha
  herbicidal rating, MOOVA: 9.0
[20]; rate 0.0320 kg/ha
  herbicidal rating, SAGPY: 0.0
[20]; rate 0.1250 kg/ha
  herbicidal rating, SAGPY: 0.0

Reference: patent publication US6706663B2, “Herbicidal 3-heterocyclic substituted benzisothiazole and benzisoxazole compounds” (Wyeth, priority 2000, dated 2004)
